# Test results published in patent US11090386B2, “Method for suppressing bitterness of quinoline derivative” (Eisai R&D Management Co., Ltd., priority 2015, dated 2021).
# Counter-ions that a name gives are not always drawn.
# Columns and labels:
# [1] = Bitterness measurement with taste perception apparatus, relative bitterness to Comparative Example 1; format: physicochemical; settings: AC0 taste sensor; lenvatinib mesylate 9.8 mg/mL (8 mg/mL free form) in 10 mM potassium chloride aqueous solution, additive added, stirred 30 minutes, supernatant; average of three measurements
# Experimental: Herein, the “bitterness” of Compound 1 or the pharmaceutically acceptable salt thereof is measured by the following method. A solution of Compound 1 at a concentration of 8 mg/mL as a free form is prepared by dissolving Compound 1 or the pharmaceutically acceptable salt thereof in a 10 mM potassium chloride aqueous solution. To the thus obtained solution, an additive is added if necessary, and the resultant is stirred for 30 minutes and then centrifuged to give a liquid phase component. The bitterness of the liquid phase component is measured using a taste sensor (ACO) for measuring bitterness, and the thus obtained value is used as a bitterness index. […]
# The measurement with the taste perception apparatus was performed four times on each sample, and three measurement results of the second to fourth measurements were used for the analysis. […] It is noted that the relative bitterness was calculated using merely data obtained through a series of continuous measurements. Relative bitterness to Comparative Example 1(%)=(Measured value of each sample−Measured value of 10 mM potassium chloride aqueous solution)/(Measured value of Comparative Example 1—Measured value of 10 mM potassium chloride aqueous solution)×100%
# [2] = Relative comparison of bitterness with taste perception apparatus (relative to Reference Example 7); settings: aqueous solution of lenvatinib mesylate at a concentration of 1.225 mg/mL or more
# Experimental: Herein, the “bitterness” of Compound 1 or the pharmaceutically acceptable salt thereof is measured by the following method. A solution of Compound 1 at a concentration of 8 mg/mL as a free form is prepared by dissolving Compound 1 or the pharmaceutically acceptable salt thereof in a 10 mM potassium chloride aqueous solution. To the thus obtained solution, an additive is added if necessary, and the resultant is stirred for 30 minutes and then centrifuged to give a liquid phase component. The bitterness of the liquid phase component is measured using a taste sensor (ACO) for measuring bitterness, and the thus obtained value is used as a bitterness index.
# As a blank solution for correction, a 10 mM potassium chloride aqueous solution was subjected to the measurement. […] Relative bitterness to Reference Example 7 was calculated in accordance with the following expression, and an average of the three measurement values is shown in Table 4 and FIG. 1. It is noted that the relative bitterness was calculated using merely data obtained through a series of continuous measurements. Relative bitterness to Reference Example 7(%)=(Measured value of each sample−Measured value of 10 mM potassium chloride aqueous solution)/(Measured value of Reference Example 7—Measured value of 10 mM potassium chloride aqueous solution)×100%
Structure (SMILES),Relative Bitterness to Comparative Example 1 (%) [1],bitterness compared with a 0.1 mM quinine hydrochloride aqueous solution [2]
"COc1cc2nccc(Oc3ccc(NC(=O)NC4CC4)c(Cl)c3)c2cc1C(N)=O [Comparative Example 1, Lenvatinib Mesylate]",100%,
"COc1cc2nccc(Oc3ccc(NC(=O)NC4CC4)c(Cl)c3)c2cc1C(N)=O [lenvatinib mesylate, Lenvatinib Mesylate]",,more bitter than a 0.1 mM quinine hydrochloride aqueous solution
